According to patent US20240099214A1, “PLANT DEFENCE GENE EXPRESSION” (UPL Corporation Limited, priority 2021, published 2024):
“Also recorded” adds a separate entry of the source.

Legend:
[1] = test system: Regulator of gene silencing (gene 14, AY642285.1); experiment: qRT-PCR expression of gene 14 in tomato leaves; format: in vivo, Tomato ecotype corbarino; design: key to RQ1 / RQ2 / RQ3 / RQ mean: relative expression normalized to a-tubulin housekeeping gene; details: for gene 14 expression compared to TSWV treatment: 48 hr; for gene 14 expression: 72 hr
Experimental: (§1) Tomato ecotype “corbarino” reported to be susceptible to TSWV infection was used in the experiment. Plants were grown in pots in a climatic chamber with a photoperiod of 16/8 hour at 25° C.
(§2) The viral strain (TSWV PV PV-0393) was utilized in the experiment. The virus was mechanically inoculated and propagated on tomato “corbarino”. The inoculum was prepared in an ice-cooled mortar grounding 1 gr of infected tomato tissue in 10 ml of Na-phosphate buffer 0.01M. The fresh prepared inoculum was stored in ice before use. Tomato plants at BBCH16 were dusted with Carborundum 600 mesh and selected leaves were rubbed with some droplets of inoculum. After 5 min. plants were sprayed with sterile water to remove the excess of inoculum and preserve the cell turgor.
(§3) Four treatments were compared: i) Mock inoculated; ii) TSWV; iii) 0.25% Laminarin; iv) 0.25% Laminarin+TSWV. In the last treatment the virus was inoculated 24 hrs after the laminarin application.
(§4) Total RNA was extracted from systemic infected tomato leaves by using the Quick-RNA Plant Kit (Zymo Research) following the manufacturer instructions. The extractions were carried out using three plants after 12 h, 24 h, 48 h, 72 h, 7 days after inoculation. Leaves were instantly frozen in liquid nitrogen after cutting to avoid any deterioration of the sample as well as any defense reaction. The RNA concentration was quantified by measuring the absorbance at 260 nm using a Nanodrop 2000 (Thermofisher). The purity of all of the RNA samples was assessed at an absorbance ratio of OD260/280 and OD260/230, while its structural integrity was checked by agarose gel electrophoresis. Only high-quality RNA with OD 260/280 and OD 260/230>2 was used for subsequent steps. Single-stranded cDNA was synthesized from 1 μg of total RNA using an iScript™ Select cDNA Synthesis Kit and random hexamers as primers (Bio-Rad, Milan, Italy), according to the manufacturer's instructions. Three biological replicates were created from the 3 leaves collected to test 15 genes. Alpha tubulin was used as reference gene.
(§5) qPCR reactions were performed with BioRad (Applied Biosystems, Foster City, CA, USA) using SYBR R Green. Each reaction was performed in 20 μl containing 10 μl of 2× Power SYBR Green PCR Master Mix (Life Technologies), 0.2-0.3 μM primers and cDNA samples diluted 1:20. Each qPCR reaction was performed in triplicate. Reactions were run using the cycling parameter described previously (Reid et al., 2006) and the qPCR data were analyzed by the Ct method (Pfaffl, 2001). In order to analyze the qPCR data, a-tubulin gene was used as housekeeping to determine the relative expression level of the other genes analyzed in this work. For the determination of qPCR efficiency of each primer pairs, a standard curve was performed using the following cDNA dilutions: 1:4, 1:16, 1:64; 1:256 and 1:1024. Every measurement was made in triplicate. The corresponding qPCR efficiencies (E) were calculated for every primer pair with the software 7300 System SDS software (Applied Biosystems, Foster City, CA, USA) according to the equation E=(10−1/slope−1)×100 (Rutledge and Stewart, 2008).
(§6) The significance of the differences between the gene expressions levels were compared by one-way ANOVA (p=0.01) and the means were separated by Tukey post-hoc test using SPSS ver.26 ([…]).

[2] = test system: Pathogenesis-related protein P4 (gene 11, M69247.1); experiment: qRT-PCR expression of gene 11 in tomato leaves; format: in vivo, Tomato ecotype corbarino; design: key: relative expression normalized to a-tubulin housekeeping gene
Experimental: as §1, §2, §3, §4, §5, §6

[3] = Gene_14, 12 hr, treatment Laminarin
[4] = Gene_14, 12 hr, treatment Laminarin + virus
[5] = Gene_14, 24 hr, treatment Laminarin
[6] = Gene_14, 24 hr, treatment Laminarin + virus
[7] = Gene_14, 48 hr, treatment Laminarin
[8] = Gene_14, 48 hr, treatment Laminarin + virus
[9] = Gene_14, 72 hr, treatment Laminarin
[10] = Gene_14, 72 hr, treatment Laminarin + virus

## laminarin
[1]; 0.25% laminarin + TSWV inoculated 24 hrs later
  gene 14 expression compared to TSWV treatment: inverted
[1]; 0.25% laminarin alone
  gene 14 expression compared to TSWV treatment: inverted
[1]; Laminarin alone
  gene 14 expression: no clear overexpression; also recorded: down regulation
[1]; laminarin with TSWV
  gene 14 expression: down regulation
[1]; [3]
  RQ1: 12.337
  RQ2: 10.845
  RQ3: 11.390
  RQ mean: 11.524
[1]; [4]
  RQ1: 14.800
  RQ2: 14.769
  RQ3: 10.304
  RQ mean: 13.291
[1]; [5]
  RQ1: 15.741
  RQ2: 11.640
  RQ3: 12.032
  RQ mean: 13.138
[1]; [6]
  RQ1: 10.995
  RQ2: 12.080
  RQ3: 12.197
  RQ mean: 11.758
[1]; [7]
  RQ1: 0.3028
  RQ2: 0.7177
  RQ3: 0.5353
  RQ mean: 0.5186
[1]; [8]
  RQ1: 0.5979
  RQ2: 0.3384
  RQ3: 0.4902
  RQ mean: 0.4755
[1]; [9]
  RQ1: 0.2805
  RQ2: 0.3706
  RQ3: 0.3064
  RQ mean: 0.3192
[1]; [10]
  RQ1: 0.5857
  RQ2: 0.5072
  RQ3: 0.2692
  RQ mean: 0.4540
[2]; 12 hr, Laminarin + virus
  RQ1: 12.101
  RQ2: 11.431
  RQ3: 10.206
  RQ mean: 11.246
[2]; 12 hr, Laminarin alone
  RQ1: 0.9441
  RQ2: 0.8925
  RQ3: 11.302
  RQ mean: 0.9889
[2]; 24 hr, Laminarin + virus
  RQ1: 13.862
  RQ2: 11.424
  RQ3: 11.236
  RQ mean: 12.174
[2]; 24 hr, Laminarin alone
  RQ1: 17.183
  RQ2: 12.595
  RQ3: 13.075
  RQ mean: 14.284
[2]; 48 hr, Laminarin + virus
  RQ1: 28.058
  RQ2: 20.254
  RQ3: 34.812
  RQ mean: 27.708
[2]; 48 hr, Laminarin alone
  RQ1: 34.926
  RQ2: 33.905
  RQ3: 24.218
  RQ mean: 31.016
[2]; 72 hr, Laminarin + virus
  RQ1: 80.672
  RQ2: 76.025
  RQ3: 53.346
  RQ mean: 70.014
[2]; 72 hr, Laminarin alone
  RQ1: 47.958
  RQ2: 51.518
  RQ3: 48.365
  RQ mean: 49.280
